Assay: xn = mol fraction of the nth substance listed
Conditions: Liquid, Vibrating tube method

COC(=O)OC [dimethyl carbonate] + CCCO
mass density [kg/m3]
Conditions	100 kPa	5000 kPa	10000 kPa	15000 kPa	20000 kPa	25000 kPa	30000 kPa	35000 kPa	40000 kPa
288.15 K, x1 = 0.0273	815.28	819.04	822.48	825.78	829.15	832.17	835.17	838.02	840.76
288.15 K, x1 = 0.0506	821.93	825.69	829.18	832.53	835.9	838.98	842.03	844.93	847.68
288.15 K, x1 = 0.0755	829.07	832.88	836.37	839.78	843.2	846.28	849.38	852.29	855.09
288.15 K, x1 = 0.1007	836.26	840.08	843.62	847.03	850.45	853.58	856.69	859.6	862.4
288.15 K, x1 = 0.1495	850.12	853.99	857.54	861.01	864.47	867.61	870.78	873.75	876.61
288.15 K, x1 = 0.2003	864.44	868.36	871.96	875.5	879	882.15	885.32	888.35	891.27
288.15 K, x1 = 0.2529	879.11	883.04	886.7	890.29	893.84	897.05	900.28	903.32	906.24
288.15 K, x1 = 0.2993	891.99	895.97	899.68	903.29	906.83	910.1	913.34	916.38	919.36
288.15 K, x1 = 0.3497	905.81	909.85	913.56	917.23	920.81	924.09	927.39	930.49	933.52
288.15 K, x1 = 0.401	919.74	923.79	927.61	931.33	934.96	938.25	941.6	944.76	947.8
288.15 K, x1 = 0.4509	933.25	937.3	941.17	944.96	948.59	951.93	955.29	958.51	961.56
288.15 K, x1 = 0.5002	946.47	950.58	954.46	958.3	961.98	965.33	968.75	971.97	975.08
288.15 K, x1 = 0.5498	959.76	963.88	967.81	971.66	975.38	978.79	982.22	985.5	988.61
288.15 K, x1 = 0.5996	973.01	977.19	981.12	984.99	988.75	992.17	995.65	998.94	1002.11
288.15 K, x1 = 0.6499	986.28	990.51	994.5	998.42	1002.18	1005.66	1009.15	1012.45	1015.62
288.15 K, x1 = 0.7006	999.56	1003.79	1007.79	1011.77	1015.53	1019.07	1022.61	1025.92	1029.15
288.15 K, x1 = 0.7471	1011.61	1015.85	1019.9	1023.94	1027.7	1031.24	1034.8	1038.16	1041.39
288.15 K, x1 = 0.7989	1025.02	1029.31	1033.41	1037.52	1041.32	1044.87	1048.43	1051.8	1055.05
288.15 K, x1 = 0.8491	1038.04	1042.34	1046.44	1050.56	1054.41	1057.97	1061.59	1065.02	1068.31
288.15 K, x1 = 0.8993	1051.07	1055.38	1059.54	1063.72	1067.56	1071.18	1074.81	1078.24	1081.55
288.15 K, x1 = 0.9249	1057.64	1061.95	1066.12	1070.3	1074.14	1077.81	1081.44	1084.88	1088.19
288.15 K, x1 = 0.9489	1063.77	1068.08	1072.25	1076.44	1080.27	1083.9	1087.54	1091.03	1094.34
288.15 K, x1 = 0.9743	1070.25	1074.61	1078.78	1082.98	1086.81	1090.45	1094.08	1097.53	1100.84
288.15 K, x1 = 1	1076.83	1081.15	1085.32	1089.52	1093.35	1096.99	1100.63	1104.08	1107.4
293.15 K, x1 = 0.0273	811.13	814.85	818.47	821.94	825.23	828.56	831.57	834.42	837.07
293.15 K, x1 = 0.0506	817.67	821.44	825.06	828.58	831.87	835.25	838.27	841.13	843.83
293.15 K, x1 = 0.0755	824.75	828.52	832.19	835.71	839.06	842.44	845.52	848.42	851.14
293.15 K, x1 = 0.1007	831.84	835.66	839.38	842.9	846.25	849.69	852.76	855.68	858.39
293.15 K, x1 = 0.1495	845.58	849.45	853.18	856.75	860.16	863.6	866.73	869.7	872.48
293.15 K, x1 = 0.2003	859.73	863.66	867.43	871.06	874.53	878.01	881.2	884.18	887.03
293.15 K, x1 = 0.2529	874.29	878.27	882.09	885.77	889.3	892.84	896.04	899.12	902.04
293.15 K, x1 = 0.2993	887.05	891.08	894.95	898.64	902.18	905.76	909.02	912.16	915.09
293.15 K, x1 = 0.3497	900.71	904.78	908.71	912.45	916.05	919.68	923	926.2	929.19
293.15 K, x1 = 0.401	914.47	918.61	922.59	926.38	930.03	933.72	937.09	940.3	943.36
293.15 K, x1 = 0.4509	927.86	932.05	936.03	939.87	943.59	947.28	950.71	953.97	957.05
293.15 K, x1 = 0.5002	940.97	945.21	949.24	953.09	956.87	960.6	964.04	967.36	970.51
293.15 K, x1 = 0.5498	954.1	958.38	962.47	966.32	970.1	973.84	977.34	980.72	983.88
293.15 K, x1 = 0.5996	967.18	971.52	975.61	979.51	983.36	987.15	990.65	994.04	997.26
293.15 K, x1 = 0.6499	980.33	984.67	988.81	992.77	996.62	1000.46	1004.03	1007.42	1010.66
293.15 K, x1 = 0.7006	993.49	997.89	1002.08	1006.04	1009.95	1013.8	1017.37	1020.81	1024.12
293.15 K, x1 = 0.7471	1005.43	1009.83	1014.07	1018.08	1022.06	1025.95	1029.53	1032.98	1036.36
293.15 K, x1 = 0.7989	1018.72	1023.17	1027.41	1031.43	1035.41	1039.31	1042.94	1046.46	1049.84
293.15 K, x1 = 0.8491	1031.57	1036.07	1040.37	1044.44	1048.43	1052.38	1056.08	1059.59	1063.05
293.15 K, x1 = 0.8993	1044.49	1049.04	1053.34	1057.42	1061.47	1065.42	1069.12	1072.65	1076.12
293.15 K, x1 = 0.9249	1051	1055.55	1059.86	1063.94	1067.99	1071.94	1075.65	1079.23	1082.7
293.15 K, x1 = 0.9489	1057.07	1061.62	1065.93	1070.01	1074.07	1078.02	1081.73	1085.31	1088.8
293.15 K, x1 = 0.9743	1063.49	1068.04	1072.35	1076.43	1080.5	1084.5	1088.21	1091.8	1095.29
293.15 K, x1 = 1	1070.06	1074.62	1078.93	1083.01	1087.08	1091.03	1094.75	1098.34	1101.84
298.15 K, x1 = 0.0273	807.06	810.99	814.7	818.11	821.44	–	–	–	–
298.15 K, x1 = 0.0506	813.55	817.52	821.28	824.74	828.12	–	–	–	–
298.15 K, x1 = 0.0755	820.52	824.54	828.31	831.81	835.25	–	–	–	–
298.15 K, x1 = 0.1007	827.5	831.52	835.34	838.84	842.29	–	–	–	–
298.15 K, x1 = 0.1495	841.12	845.19	849.06	852.61	856.13	–	–	–	–
298.15 K, x1 = 0.2003	855.15	859.27	863.19	866.8	870.37	–	–	–	–
298.15 K, x1 = 0.2529	869.54	873.66	877.64	881.29	884.88	–	–	–	–
298.15 K, x1 = 0.2993	882.18	886.34	890.38	894.08	897.73	–	–	–	–
298.15 K, x1 = 0.3497	895.71	899.93	904.02	907.77	911.48	–	–	–	–
298.15 K, x1 = 0.401	909.36	913.63	917.77	921.57	925.35	–	–	–	–
298.15 K, x1 = 0.4509	922.58	926.89	931.09	934.95	938.74	–	–	–	–
298.15 K, x1 = 0.5002	935.57	939.93	944.14	948.04	951.89	–	–	–	–
298.15 K, x1 = 0.5498	948.57	952.93	957.19	961.1	–	–	–	–	–
298.15 K, x1 = 0.5996	961.54	965.95	970.21	974.17	–	–	–	–	–
298.15 K, x1 = 0.6499	974.52	978.92	983.24	987.25	–	–	–	–	–
298.15 K, x1 = 0.7006	987.56	992.01	996.39	1000.44	–	–	–	–	–
298.15 K, x1 = 0.7471	999.38	1003.88	1008.26	1012.37	–	–	–	–	–
298.15 K, x1 = 0.7989	1012.54	1017.09	1021.53	1025.64	–	–	–	–	–
298.15 K, x1 = 0.8491	1025.27	1029.83	1034.32	1038.48	–	–	–	–	–
298.15 K, x1 = 0.8993	1038.07	1042.62	1047.12	1051.28	–	–	–	–	–
298.15 K, x1 = 0.9249	1044.52	1049.07	1053.57	1057.78	–	–	–	–	–
298.15 K, x1 = 0.9489	1050.53	1055.08	1059.58	1063.79	–	–	–	–	–
298.15 K, x1 = 0.9743	1056.89	1061.44	1065.95	1070.16	–	–	–	–	–
298.15 K, x1 = 1	1063.45	1068	1072.51	1076.72	–	–	–	–	–

From the NIST ThermoML archive (doi:10.1016/j.jct.2019.02.011)
